Results on nine compounds are retold here after US20150004237A1, “CELLULOSE DERIVATIVES FOR INHIBITING CRYSTALLIZATION OF POORLY WATER-SOLUBLE DRUGS” (Virginia Tech Intellectual Properties, Inc., priority 2012, published 2015).

For data set [1] the following is noted: cited from earlier work.
Data set [2] is described as follows: Crystal growth rate of efavirenz (seeded desupersaturation). Format: physicochemical. The conditions noted are these: supersaturation ratio of 1.2.
A short description of a further data set: physchem. Conditions: 37 °C, pH 6.8, aqueous buffer, thermodynamic from solid.
Data set [3] in a line: Quercetin release profile. The data set is classed as physicochemical. The conditions noted are these: pH 6.8 buffer, Que 0.07 mg/mL. As to the method: In the measurement of drug release profiles, maximum Que concentration was fixed at 0.07 mg/mL in pH 6.8 buffer solution. The UV-vis absorption of the solution was measured and plotted vs. time. Release profiles were determined.

For data set [4] the following is noted: pH 6.8; cited from earlier work.
The nature of data set [5]: Theoretical amorphous solubility with moisture sorption effect. The data set is classed as physicochemical. The conditions noted are these: 37° C. The source says:
Amorphous solubility can be approximated by estimating the free energy difference between crystalline and amorphous forms using the Hoffman equation: […]
The ratio of amorphous and crystalline solubility (Samorphous/Scrystalline) is then estimated from the free energy difference (ΔGa→σ) calculated from heat of fusion (ΔHf) and melting temperature (Tm) of the crystalline material determined from DSC analysis, as well as the experimentally determined crystalline solubility:
See Murdande, S. B., Pikal, M. J. Shanker, R. M. & Bogner, R. H., “Solubility Advantage of amorphous pharmaceuticals: I. A thermodynamic analysis,” J. Pharm. Sci., 99(3): 1254-1264, (2009) (“Murdande I”) and Murdande, S. B., Pikal, M. J. Shanker, R. M. & Bogner, R. H., “Solubility Advantage of amorphous pharmaceuticals: II. Application of quantitative thermodynamic relationships for prediction of solubility enhancement in structurally diverse insoluble pharmaceuticals,” Pharm. […]
The moisture sorption profile of amorphous ritonavir was determined at 37° C. using a TA Q5000 dynamic vapor sorption analyzer (TA Instruments, New Castle, Del.) equipped with a humidity controlled chamber and an ultrasensitive thermobalance. […] Subsequently, the moisture sorption isotherm was measured by equilibrating the sample under controlled relative humidity (RH) ranging from 5% RH to 95% RH, in 10% RH intervals. […]

The nature of data set [6]: Nucleation-induction time of ritonavir from supersaturated solution. Format: physicochemical. The conditions noted are these: initial 20 μg/mL, no polymer, pH 6.8, 37° C. Here is the method: The period between the generation of supersaturation and initiation of nucleation was determined by monitoring the absorbance at 280 nm using an ultraviolet/visible spectrometer, fiber optic coupled with a dip probe (SI Photonics® Tucson, Ariz.). Wavelength scans were acquired every 45 seconds. Precipitation was characterized by an increased extinction at 280 nm wavelength. A supersaturated solution of ritonavir was generated by adding 0.4 mL of ritonavir dissolved in methanol at a concentration 4 mg/mL, to 80 mL sodium phosphate buffer, pH 6.8, at 37° C., providing an initial solution concentration of ritonavir of 20 μg/mL. The drug of compositions of the invention can be present in any amount ranging from about 0-100 μg/mL, such as from about 5-10 μg/mL, or from 15-20 μg/mL, or from 25-30 μg/mL, or from 35-50 μg/mL, or from 55-75 μg/mL, or from 80-90 μg/mL. Depending on the drug compound and the types and amounts of polymers used, the most preferred concentration of drug in the compositions ranges from about 5-25 μg/mL. A syringe pump (Harvard Apparatus, Holliston, Mass.) was used to control the rate of addition of organic solution of ritonavir to buffer solution; the flow rate was 0.20 mL/min. […] The ability of the various polymers to affect the nucleation of ritonavir was evaluated using a polymer concentration of 5 μg/mL. […]

Data set [7] in a line: Crystal growth rate of ritonavir (seeded desupersaturation). Format: physicochemical.
The nature of data set [8]: Ritonavir seed crystal size and morphology by SEM. Format: physicochemical. The conditions noted are these: After Crystal Growth (S = 15.4). From the text:
Characterization of Seed Crystals. Ritonavir seed crystals were characterized using scanning electron microscopy (SEM), powder X-ray diffraction analysis (PXRD), and differential scanning calorimetry (DSC). SEM was used to determine the size and shape of ritonavir crystals, while PXRD and DSC were used to evaluate the polymorph of the seed crystals. Ritonavir was used as received from the manufacturer, and prior to use, the seeds were sieved to a size below 250 p.m. Seed crystals used for SEM analysis were prepared by dispersing the seeds in water and equilibrating the water-seed crystal suspension for approximately 24 h. A few drops of the suspension were placed on a glass slide and dried overnight in a vacuum oven at room temperature for approximately 24 h. Before SEM imaging, the glass slides were mounted using double-sticky copper tape and sputter-coated with platinum for 60 s. SEM imaging was performed using an FEI NOVA nanoSEM field emission SEM using an Everhart-Thornley (ET) detector and a through-thelens detector (TLD). The following imaging parameters were used: 5 kV accelerating voltage, approximately 4-5 mm working distance, beam spot size of 3, 30 μm aperture, and 100-10,000× magnifications. The SEM images were analyzed using ImageJ, processing and analysis in Java (National Institutes of Health (NIH)). Several representative samples of seed crystals were obtained before and after crystal growth in the absence and presence of predissolved additive. For each sample, a total of 50 seeds were analyzed to ensure a representative sample, and the average aspect ratio of the crystals was estimated from the average length and width of the crystals.
The polymorphic form of the seed crystals after the crystal growth experiment was also confirmed to be Form II by PXRD. The average length, width, and aspect ratio of ritonavir seed crystals before and after the crystal growth experiment in the presence of the CAP Adp 0.85, Pn-IPAAmd, and CAP Adp 0.85/Pn-IPAAmd polymer combination at initial S values of 7.6 and 15.4 are summarized in Table 6.

Data set [9] in a line: Dynamic light scattering particle size of ritonavir during de-supersaturation. The data set is classed as physicochemical. The conditions noted are these: ritonavir 25 μg/mL. As to the method:
Dynamic light scattering (DLS) was used to monitor changes in particle size as a function of time during de-supersaturation experiments. DLS experiments were performed using a Nano-Zetasizer (Nano-ZS) and its software, dispersion technology software (DTS). A 173° backscatter detector was used in order to minimize the signal from large dust particles or other large contaminants. A quartz flow-through cuvette, coupled with a pump was used for continuous sampling. […] Particle size experiments were performed in the absence and presence of pre-dissolved polymers. As an example, ritonavir was used at an initial concentration of 25 μg/mL with a polymer concentration of 50 μg/mL. The buffer solution was allowed to equilibrate at 37° C. prior to addition of solubilized ritonavir. Data collection began after generation of supersaturation. A stir-plate was used to stir the solution at a speed of 400 rpm.

The conditions of data set [10]: cited from earlier work. This is another data set of the same source.
Data set [11] in a line: Ellagic acid release profile. Format: physicochemical. The conditions noted are these: pH 6.8 buffer.
A short description of data set [12]: Formation of X-ray amorphous resveratrol-polymer dispersion by rotary evaporation. The data set is classed as physicochemical. Conditions: classification system of Van Eerdenbrugh et al. As to the method: All mixtures were visually inspected to confirm that the resveratrol and the polymers were fully dissolved, and that the systems formed uniform one-phase solutions. […] The samples were then placed under vacuum for 24 h to remove any residual solvents. The obtained material was subsequently cryomilled in a liquid nitrogen bath for a total milling time of 4 min. Powder X-Ray Diffraction. Immediately after cryomilling, the samples were analyzed using a Shimadzu XRD-6000 (Shimadzu Corporation, Kyoto, Japan) equipped with a Cu-Kα source and set in Bragg-Brentano geometry between 5° and 35° 2θ at 8°/min with a 0.04° step size. Samples were also analyzed over time following the storage treatments listed above. […] Samples where sharp peaks were observed were deemed crystalline, and those samples that lacked sharp peaks were labeled X-ray amorphous. Physical mixtures of select resveratrol-polymer systems were made to provide a fully crystallized reference. The percent crystallized for certain samples was estimated from a calibration curve generated from analysis of the diffraction patterns of the different solid dispersions, spiked with increasing levels of crystalline resveratrol. […] The crystallinity of these calibration samples was measured immediately after preparation.

For data set [13] the following is noted: pH 6.8.
A short description of data set [14]: Crystal growth rate of celecoxib (seeded desupersaturation). Conditions: supersaturation ratio of 1.2. Format: physicochemical.
The mark [15] stands for this setting: After Crystal Growth (S = 7.6), values from ref 31 / ref 38.
The mark [16] stands for this setting: After Crystal Growth (S = 7.6), values from ref 31 / ref 38, listed as RTV.
[17] abbreviates: Before Crystal Growth, values from ref 31.

Converted amounts (≈) assume the structure as drawn. “And” between values parts separate entries of the source, which are not always exact repeats. Identical values can stand only once. Like-named read-outs stand apart in the source and are kept apart here.

For `C=CC(=O)O` [Acrylic acid], in data set [1], the pKa is on record as 4.76.
Regarding `O=C1Nc2ccc(Cl)cc2[C@@](C#CC2CC2)(C(F)(F)F)O1` [efavirenz], in data set [2], the “normalized crystal growth rate of efavirenz” value is 59.32 μg mL^−1 min^−1 m^−2. The same compound came in with a thermodynamic solubility at 48 h in the data set “physchem” of 8.2 µg/mL (≈ 26 µM).
With `O=c1c(O)c(-c2ccc(O)c(O)c2)oc2cc(O)cc(O)c12` [Que, Quercetin], the “Que dissolution / release after 1 h” value in [3] was found to be 0.7%.
As for Poly vinylpyrrolidone K 29/32 [PVP], the “Equilibrium solubility of ritonavir in the presence of polymer (Table 7)” value in data set [4] is 1.2 ± 0.05 µg/mL.
With Ritonavir, in [5], the “calculated amorphous solubility with moisture sorption correction” value is 20.6 µg/mL. The “induction time of ritonavir” value in [6] was “approximately 119 minutes”. In addition, the “initial bulk crystal growth rate of ritonavir” value in data set [7] (100 mM sodium phosphate buffer, initial 10 μg/mL, no polymer, first 2 min) is 1.56 µg/mL/min. The “normalized crystal growth rate of ritonavir” value in data set [7] (supersaturation ratio of 1.2) was found to be 3.94 μg mL^−1 min^−1 m^−2. Further, in [8], the aspect ratio was 12.1, the crystal morphology entry is listed as “needle-like”, the length is listed as 50.9 ± 14.4 μm and the width was 4.2 ± 1.2 μm. The “time particle size was maintained” value in data set [9] (no polymer) was about 100 min. In addition, in data set [9] (polymer 50 μg/mL or none, pH 6.8, 37° C., initially formed particles), the “size of ritonavir particles” value was 350-450 nm. Moreover, in data set [10] (setting [15]), the aspect ratio is 8.8 and 7.7; the crystal morphology result was “needle-like”; the length is recorded as 50.4 ± 18.6 μm; the width is reported as 5.7±1.4 μm. Moreover, in data set [10] (setting [16]), the aspect ratio was 8.8 and the width is given as 5.7 ± 1.4 μm. In data set [10] (setting [17]), the aspect ratio is reported as 7.7, the crystal morphology result is on record as “needle-like”, the length is 44.4 ± 15.2 μm and the width is 5.8 ± 1.9 μm. Moreover, in data set [4], the “Equilibrium solubility of ritonavir, no polymer (Table 7)” value was 1.3 ± 0.10 µg/mL.
In the case of `O=c1oc2c(O)c(O)cc3c(=O)oc4c(O)c(O)cc1c4c23` [EA, Ellagic Acid], in data set [11], the “EA release after 24 h” value came to 7% and the “time of maximum EA release” value was found to be 2 h. The “maximum EA release” value in data set [11] (25° C., EA 0.05 mg/mL) was found to be 11%. The aqueous solubility in data set [1] (pH 7.4) is 9.3 µg/mL (≈ 30.8 µM).
With `Oc1ccc(/C=C/c2cc(O)cc(O)c2)cc1` [Resveratrol], the “crystallization tendency during production” value in data set [12] is recorded as “rapid crystallizer”.
As to “poly(N-iso-propylacrylamide) [Pn-IPAAmd]”, in [13], the “Equilibrium solubility of efavirenz in the presence of polymer” value worked out at 8.7 ± 0.07 µg/mL and the “Solubility of Ritonavir in the presence of polymer” value worked out at 1.3 ± 0.01 µg/mL. In addition, the “Equilibrium solubility of ritonavir in the presence of polymer (Table 7)” value in data set [4] is 1.3 ± 0.01 µg/mL.
As for `Cc1ccc(-c2cc(C(F)(F)F)nn2-c2ccc(S(N)(=O)=O)cc2)cc1` [celecoxib], the “normalized crystal growth rate of celecoxib” value in [14] turned out to be 18.20 μg mL^−1 min^−1 m^−2. In the data set “physchem”, this compound registered a solubility (thermodynamic) at 48 h of 1.5 µg/mL (≈ 3.93 µM).

In general, pKa refers to the pH at which an ionisable group is half protonated. What is called solubility (thermodynamic) is solubility found after equilibrating the solid with the medium. In general, aqueous solubility refers to how much of the substance goes into solution per volume.
